# Assay results reported in ChEMBL document CHEMBL1153245, “A profile of the in vitro anti-tumor activity of imidazolium-based ionic liquids” (2010).
# Key:
# Type in all cases: functional
# RXF 393 = assay: Anticancer activity against human RXF393 cells assessed cell growth at 10 uM after 48 hrs by sulforhodamine B assay relative to control
# SW-620 = assay: Anticancer activity against human SW620 cells assessed cell growth at 10 uM after 48 hrs by sulforhodamine B assay relative to control
# ACHN = assay: Anticancer activity against human ACHN cells assessed cell growth at 10 uM after 48 hrs by sulforhodamine B assay relative to control
# SK-OV-3 = assay: Anticancer activity against human SKOV3 cells assessed cell growth at 10 uM after 48 hrs by sulforhodamine B assay relative to control
# DU-145 = assay: Anticancer activity against human DU145 cells assessed cell growth at 10 uM after 48 hrs by sulforhodamine B assay relative to control
# MDA-MB-231 = assay: Anticancer activity against human MDA-MB-231 cells assessed cell growth at 10 uM after 48 hrs by sulforhodamine B assay relative to control
# NCI/ADR-RES = assay: Anticancer activity against human NCI/ADR-RES cells assessed cell growth at 10 uM after 48 hrs by sulforhodamine B assay relative to control
# HL-60(TB) = assay: Anticancer activity against human HL-60(TB) cells assessed cell growth at 10 uM after 48 hrs by sulforhodamine B assay relative to control
# NCI-H460 = assay: Anticancer activity against human NCI-H460 cells assessed cell growth at 10 uM after 48 hrs by sulforhodamine B assay relative to control
# [1] = Anticancer activity against human RPMI8266 cells assessed cell growth at 10 uM after 48 hrs by sulforhodamine B assay relative to control
# HCT-116 = assay: Anticancer activity against human HCT116 cells assessed cell growth at 10 uM after 48 hrs by sulforhodamine B assay relative to control
# K562 = assay: Anticancer activity against human K562 cells assessed cell growth at 10 uM after 48 hrs by sulforhodamine B assay relative to control
# CAKI-1 = assay: Anticancer activity against human Caki1 cells assessed cell growth at 10 uM after 48 hrs by sulforhodamine B assay relative to control
# HOP-92 = assay: Anticancer activity against human HOP92 cells assessed cell growth at 10 uM after 48 hrs by sulforhodamine B assay relative to control
# SNB-19 = assay: Anticancer activity against human SNB19 cells assessed cell growth at 10 uM after 48 hrs by sulforhodamine B assay relative to control
# NCI-H522 = assay: Anticancer activity against human NCI-H522 cells assessed cell growth at 10 uM after 48 hrs by sulforhodamine B assay relative to control
# Malme-3M = assay: Anticancer activity against human MALME-3M cells assessed cell growth at 10 uM after 48 hrs by sulforhodamine B assay relative to control
# MCF7 = assay: Anticancer activity against human MCF7 cells assessed cell growth at 10 uM after 48 hrs by sulforhodamine B assay relative to control
# IGROV-1 = assay: Anticancer activity against human IGROV1 cells assessed cell growth at 10 uM after 48 hrs by sulforhodamine B assay relative to control
# M14 = assay: Anticancer activity against human M14 cells assessed cell growth at 10 uM after 48 hrs by sulforhodamine B assay relative to control
# T47D = assay: Anticancer activity against human T47D cells assessed cell growth at 10 uM after 48 hrs by sulforhodamine B assay relative to control
# MDA-MB-435 = assay: Anticancer activity against human MDA-MB-435 cells assessed cell growth at 10 uM after 48 hrs by sulforhodamine B assay relative to control
# SR = assay: Anticancer activity against human SR cells assessed cell growth at 10 uM after 48 hrs by sulforhodamine B assay relative to control
# PC-3 = assay: Anticancer activity against human PC3 cells assessed cell growth at 10 uM after 48 hrs by sulforhodamine B assay relative to control
# HT-29 = assay: Anticancer activity against human HT-29 cells assessed cell growth at 10 uM after 48 hrs by sulforhodamine B assay relative to control
# SF-268 = assay: Anticancer activity against human SF268 cells assessed cell growth at 10 uM after 48 hrs by sulforhodamine B assay relative to control
# NCI-H23 = assay: Anticancer activity against human NCI-H23 cells assessed cell growth at 10 uM after 48 hrs by sulforhodamine B assay relative to control
# NCI-H226 = assay: Anticancer activity against human NCI-H226 cells assessed cell growth at 10 uM after 48 hrs by sulforhodamine B assay relative to control
# OVCAR-4 = assay: Anticancer activity against human OVCAR4 cells assessed cell growth at 10 uM after 48 hrs by sulforhodamine B assay relative to control
# UO-31 = assay: Anticancer activity against human UO31 cells assessed cell growth at 10 uM after 48 hrs by sulforhodamine B assay relative to control
# SK-MEL-28 = assay: Anticancer activity against human SK-MEL-28 cells assessed cell growth at 10 uM after 48 hrs by sulforhodamine B assay relative to control
# SNB-75 = assay: Anticancer activity against human SNB75 cells assessed cell growth at 10 uM after 48 hrs by sulforhodamine B assay relative to control
# UACC-62 = assay: Anticancer activity against human UACC62 cells assessed cell growth at 10 uM after 48 hrs by sulforhodamine B assay relative to control
# MDA-MB-468 = assay: Anticancer activity against human MDA-MB-468 cells assessed cell growth at 10 uM after 48 hrs by sulforhodamine B assay relative to control
# UACC-257 = assay: Anticancer activity against human UACC257 cells assessed cell growth at 10 uM after 48 hrs by sulforhodamine B assay relative to control
# SK-MEL-2 = assay: Anticancer activity against human SK-MEL-2 cells assessed cell growth at 10 uM after 48 hrs by sulforhodamine B assay relative to control
# SK-MEL-5 = assay: Anticancer activity against human SK-MEL-5 cells assessed cell growth at 10 uM after 48 hrs by sulforhodamine B assay relative to control
# LOX IMVI = assay: Anticancer activity against human LOXIMVI cells assessed cell growth at 10 uM after 48 hrs by sulforhodamine B assay relative to control
# OVCAR-5 = assay: Anticancer activity against human OVCAR5 cells assessed cell growth at 10 uM after 48 hrs by sulforhodamine B assay relative to control
# HCC 2998 = assay: Anticancer activity against human HCC2998 cells assessed cell growth at 10 uM after 48 hrs by sulforhodamine B assay relative to control
# TK-10 = assay: Anticancer activity against human TK10 cells assessed cell growth at 10 uM after 48 hrs by sulforhodamine B assay relative to control
# HOP-62 = assay: Anticancer activity against human HOP62 cells assessed cell growth at 10 uM after 48 hrs by sulforhodamine B assay relative to control
# CCRF-CEM = assay: Anticancer activity against human CCRF-CEM cells assessed cell growth at 10 uM after 48 hrs by sulforhodamine B assay relative to control
smiles,measurement,setting,value
CCCCCCCCOS(=O)(=O)[O-].CCCCCCCC[n+]1ccn(C)c1,Activity,RXF 393,84%
same,Activity,SW-620,86.25%
same,Activity,ACHN,67.5%
same,Activity,SK-OV-3,82.36%
same,Activity,DU-145,96.94%
same,Activity,MDA-MB-231,66.28%
same,Activity,NCI/ADR-RES,94.1%
same,Activity,HL-60(TB),82.07%
same,Activity,NCI-H460,95.98%
same,Activity,[1],116.11%
same,Activity,HCT-116,55.91%
same,Activity,K562,93.71%
same,Activity,CAKI-1,56.81%
same,Activity,HOP-92,107.58%
same,Activity,SNB-19,82.22%
same,Activity,NCI-H522,57.44%
same,Activity,Malme-3M,80.15%
same,Activity,MCF7,75.57%
same,Activity,IGROV-1,72.84%
same,Activity,M14,84%
same,Activity,T47D,80.27%
same,Activity,MDA-MB-435,55.5%
same,Activity,SR,82.08%
same,Activity,PC-3,94.3%
same,Activity,HT-29,67.62%
same,Activity,SF-268,92.2%
same,Activity,NCI-H23,56.59%
same,Activity,NCI-H226,74.07%
same,Activity,OVCAR-4,60.6%
same,Activity,UO-31,71.08%
same,Activity,SK-MEL-28,112.15%
same,Activity,SNB-75,84.66%
same,Activity,UACC-62,85.18%
same,Activity,MDA-MB-468,38.15%
same,Activity,UACC-257,78.7%
same,Activity,SK-MEL-2,83.39%
same,Activity,SK-MEL-5,74.87%
same,Activity,LOX IMVI,68.86%
same,Activity,OVCAR-5,98.17%
same,Activity,HCC 2998,69.81%
same,Activity,TK-10,68.07%
same,Activity,HOP-62,90.54%
same,Activity,CCRF-CEM,97.94%
CCCCCCCCCCCC[n+]1ccn(C)c1.F[B-](F)(F)F,Activity,RXF 393,22.19%
same,Activity,SW-620,54.63%
same,Activity,ACHN,54.07%
same,Activity,SK-OV-3,47.29%
same,Activity,DU-145,7.97%
same,Activity,MDA-MB-231,26.48%
same,Activity,NCI/ADR-RES,76.53%
same,Activity,HL-60(TB),50.79%
same,Activity,NCI-H460,23.03%
same,Activity,[1],130.35%
same,Activity,HCT-116,16.24%
same,Activity,K562,80.69%
same,Activity,CAKI-1,30.59%
same,Activity,HOP-92,46.45%
same,Activity,SNB-19,39.2%
same,Activity,NCI-H522,-10.37%
same,Activity,Malme-3M,31.87%
same,Activity,MCF7,-1.79%
same,Activity,IGROV-1,1.02%
same,Activity,M14,24.71%
same,Activity,T47D,11.08%
same,Activity,MDA-MB-435,20.42%
same,Activity,SR,100.03%
same,Activity,PC-3,74.38%
same,Activity,HT-29,24.82%
same,Activity,SF-268,66.79%
same,Activity,NCI-H23,23.04%
same,Activity,NCI-H226,37.19%
same,Activity,OVCAR-4,12.68%
same,Activity,UO-31,68.16%
same,Activity,SK-MEL-28,62.65%
same,Activity,SNB-75,3.39%
same,Activity,UACC-62,40.33%
same,Activity,MDA-MB-468,-43.37%
same,Activity,UACC-257,-7.74%
same,Activity,SK-MEL-2,18.52%
same,Activity,SK-MEL-5,-19.73%
same,Activity,LOX IMVI,35.51%
same,Activity,OVCAR-5,48.72%
same,Activity,HCC 2998,28.68%
same,Activity,TK-10,24.24%
same,Activity,HOP-62,28.7%
same,Activity,CCRF-CEM,96%
CCCCCCCC[n+]1ccn(C)c1.F[B-](F)(F)F,Activity,RXF 393,104.98%
same,Activity,SW-620,80.56%
same,Activity,ACHN,70.72%
same,Activity,SK-OV-3,81.16%
same,Activity,DU-145,95.55%
same,Activity,MDA-MB-231,78.93%
same,Activity,NCI/ADR-RES,91.95%
same,Activity,HL-60(TB),64.63%
same,Activity,NCI-H460,98.66%
same,Activity,[1],64.64%
same,Activity,HCT-116,66.53%
same,Activity,K562,81.46%
same,Activity,CAKI-1,60.04%
same,Activity,HOP-92,87.53%
same,Activity,SNB-19,81.8%
same,Activity,NCI-H522,69.23%
same,Activity,Malme-3M,80.13%
same,Activity,MCF7,76.87%
same,Activity,IGROV-1,85.75%
same,Activity,M14,87.56%
same,Activity,T47D,75.19%
same,Activity,MDA-MB-435,59.67%
same,Activity,SR,87.14%
same,Activity,PC-3,83.86%
same,Activity,HT-29,70.49%
same,Activity,SF-268,103.08%
same,Activity,NCI-H23,59.28%
same,Activity,NCI-H226,75.04%
same,Activity,OVCAR-4,66.15%
same,Activity,UO-31,76.51%
same,Activity,SK-MEL-28,105.03%
same,Activity,SNB-75,84.84%
same,Activity,UACC-62,90.08%
same,Activity,MDA-MB-468,39.75%
same,Activity,UACC-257,87.94%
same,Activity,SK-MEL-2,90.35%
same,Activity,SK-MEL-5,81.77%
same,Activity,LOX IMVI,72.64%
same,Activity,OVCAR-5,92.12%
same,Activity,HCC 2998,70.57%
same,Activity,TK-10,76.77%
same,Activity,HOP-62,91.23%
same,Activity,CCRF-CEM,45.61%
